Reference: patent publication US5849900A, “Inhibition of viruses by antisense oligomers capable of binding to polypurine rich tract of single-stranded RNA or RNA-DNA hybrids” (Max-Planck-Gesellschaft zur Forderung der Wissenschafter …, priority 1995, dated 1998)

What was measured:
[1] = system: PPT of HIV-1 viral RNA (pKJ2 RNA); test: cDNA elongation / premature termination of cDNA synthesis on single-stranded viral RNA (Example 1); assay type: biochemical; conditions: antisense oligonucleotide hybridized with single-stranded HIV-1 RNA; HIV-1 RT
Procedure: HIV-1 viral RNA was transcribed in vitro from a construct containing a T7 promoter along with the PPT, which consists of the sequence: AAAAGAAAAGGGGGGA (SEQ ID NO: 1) or […] (SEQ ID NO: 2) when extended within the 3' LTR and 2 non-purines are included. The viral RNA, corresponding to pKJ2, consisted of 134 nucleotides. A ^32 P end-labeled antisense oligonucleotide was hybridized with the RNA. The cDNA reaction products were analyzed on 10% polyacrylamide TEE-urea gels. Details of the procedure are as follows:
To the standard reaction mixture described in Example 2 below were added a 125 μM quantity of one of the ddNTPs and each of the other three dNTPS and 4 units of HIV-1RT. The reactions were started by the addition of approximately 3 pmol of hybrid RNA (low specific activity) and treated as described above. To check for cDNA elongation, the same test was carried out, except with unlabeled in vitro transcribed RNA hybridized to a 10:1 mixture of unlabeled to labeled oligonucleotide. Aliquots were analyzed by electrophoresis on 10% TEE-urea-polyacrylamide gels.
The RNase H reaction was carried out in a total volume of 500 μL in RNase H buffer containing 1000 units of RNasin and 25 units of HIV-1RT/RNase H. After the reaction was started by the addition of 8 pmol of an unlabeled RNA-DNA oligonucleotide hybrid, the sample was divided into five aliquots of 100 μL and incubated for 30 minutes at 37° C., and the reaction was stopped at 95° C. for 5 minutes. The samples were placed on ice and to each was added 10 units of DNase I to remove the DNA oligonucleotide. After 10 minutes, the samples were incubated further at 37° C. for 10 minutes. The reactions were stopped at 95° C. for 10 minutes. […] Aliquots were analyzed by electrophoresis on an 8% TBE-urea-polyacrylamide gel together with dideoxy sequencing ladders generated with the same ^32 P-end-labeled DNA oligonucleotide primer on a single-stranded M13 DNA template harboring the corresponding DNA fragment. […]

[2] = system: pKJ2 RNA hybridized with 40-mer deoxyribonucleotide complementary to the PPT region; RNase H; test: RNase H cleavage inhibition on pKJ2 RNA-DNA hybrid, phosphoimager quantitation (Example 3); assay type: biochemical, HIV-1; conditions: for IC50: range of concentrations, FIG. 4, phosphoimager, read-out: concentration that inhibited the RNase H by 50%
Procedure: In vitro transcribed, 5'end-labeled pKJ2 RNA of 134 nucleotides in length was hybridized with a 10-fold excess of a 40-mer deoxyribonucleotide complementary to the PPT region. Volkmann, et al., Biochimie, 1993, 75, 71-78. Hybridizations were carried out in 25 mM Tris-acetate buffer (pH 6.8) containing 50 mM NaCl, 10 mM β-mercapotoethanol and 0.4 mM spermine hydrochloride. The mixture was incubated for 3 minutes at 90° C., then cooled slowly to room temperature. For triplex-formation, 1 pmol hybrid substrate was incubated with either 10 or 100 pmol oligodeoxynucleotide overnight at 37° C. Finally, each sample was treated with 12 ng enzyme in 10 microliters RNase H-standard buffer (see Example 2) for 30 minutes at 37° C. RNase H cleavage reaction was stopped by incubation at 96° C. for 2 minutes. Samples were ethanol-precipitated and analyzed on 10% polyacrylamide-TEE-urea gel. The gel was visualized by autoradiography and analyzed with a phosphoimager (Molecular Dynamics). GT purine-pyrimidine mixed DNA oligonucleotides and RNA oligonucleotides were analyzed and compared with a 25-mer pyrimidine sequence in parallel (Seq ID No: 3) and antiparallel (Seq ID No: 42) orientation. To quantitate the effects of the oligonucleotides, the amounts of uncut RNA were determined. The oligonucleotides tested are listed below:
Oligonucleotides GT1, GT2, and GU1 were tested further at a range of concentrations. The concentrations of the remaining materials were as previously. The quantitative plots of phosphoimager results for GT1, GT2, and GU1 are depicted in FIG. 4. GT1 inhibited the RNase H by 50% at 5.0 μM, and GU1 inhibited 50% at 0.5 μM.

[3] = system: PPT region of single-stranded RNA; RNase H; test: Protection of single-stranded RNA from RNase H cleavage by chimeric oligonucleotides 5'-A-B-C-3' (Example 4); assay type: biochemical, HIV-1; conditions: for oligonucleotide concentration that inhibited cleavage to 50%: 50-fold molar excess of the oligonucleotide over the template
Procedure: Chimeric oligonucleotides of the basic formula 5'-A-B-C-3' were tested with single-stranded RNA in a two-strand system. […] (Personal communication.) Average protection from cleavage was about 50%.
Protection from RNase H was monitored as above. Specifically, protection was monitored in vitro using RNA which was radioactively labeled at its 5'-end. Cleavage was analyzed on a sequencing gel. Cleavage within the PPT region of the RNA leads to a band of about 80 nucleotides. Protection from cleavage results in an uncleavaged full-length RNA. The amount of cleaved versus uncleaved RNA was monitored by phosphoimager.

RT = test: Inhibition of the RT by TFO-A variants; assay type: biochemical, HIV-1
Text: Through these studies, it was learned that the two bulges are essential for protection of RNA and that the overhanging 5'- and 3'-ends can be shortened. Variances numbered 5037 (SEQ ID NO:26) and 5074 (SEQ ID NO:21) inhibited cleavage to 50% at 50-fold molar excess of the oligonucleotide over the template, i.e., about one μM oligonucleotide.

[4] = 1 pmol hybrid with 10 or 100 pmol oligonucleotide

## TGAATTAGCCCTTCCAGTCCCCCCTTTTCTTTTAAAAAGT (chemistry not given here) [SEQ ID NO: 9, antisense 40-mer covering the PPT]
[1]
  blocking of cDNA synthesis (inhibition of cDNA elongation): 100%

## AGTCCCCCCTTTTCTTTTAA (chemistry not given here) [SEQ ID NO: 10, antisense 20-mer covering the PPT]
[1]
  blocking of cDNA synthesis (inhibition of cDNA elongation): 100%

## CCCTTCCAGTCCCCCCTTTTCTTTT (chemistry not given here) [PY2]
[2]; [4]
  inhibition of RNase H (degree, in words): lowest degree of inhibition

## 5037: TFO-A variant, sequence shown only as drawing in Table 6 (TTTTCTTTTGGGGGGTTTGGTTGGGTTTTCCCTTCCAGTCCCCCCTTTTCTTTT; chemistry not given here) [compound 5037]
[3]
  oligonucleotide concentration that inhibited cleavage to 50%: about one
RT
  concentration at which ninety-five percent inhibition of the RT occurred: about 25 μM

## AGGGGATTTGGTTGGGTTTTCCCTTCCAGTCCCCC (chemistry not given here) [compound 5074, TFO-A variant]
[3]
  oligonucleotide concentration that inhibited cleavage to 50%: about one
RT
  concentration at which ninety-five percent inhibition of the RT occurred: about 25 μM

## TFO F1: TFO F derivative that formed a pseudocircle due to a complementary tail (GCATGCCCTTTTCTTTTCCCCCCTTTTTTCCCCCCTTTTCTTTTCCGCATGC; forms pseudocircle through self-complementary tail, further chemistry not given here)
[3]
  inhibition of RNase H: about 80%

## CCGCCCAGGCCACGCCTCCC (chemistry not given here) [SEQ ID NO: 11, control antisense 20-mer outside the PPT region, reference compound]
[1]
  blocking of cDNA synthesis (inhibition of cDNA elongation): 20-50%

## Us Us Us Us Cs Us Us Us Us Cs Cs Cs Cs Cs Cs Us TTTTTCCCCC TTTTCTTTT (UUUUCUUUUCCCCCCUTTTTTCCCCCCTTTTCTTTT; phosphorothioate backbone, chemistry not fully specified) [Rs RD]
[3]; at equimolar concentration
  protection from cleavage: One hundred percent
[3]; at the same concentration as the phosphodiester
  inhibition (protection from RNase H): 100%

## TTTTGTTTTGGGGGGTGTGGTTGGG (chemistry not given here) [TFO 1', 25-mer GT triplex-forming oligonucleotide]
[2]
  IC50: 5000 nM

## UUUUGUUUUGGGGGGUGUGGUUGGG (chemistry not given here) [GU1, the RNA oligonucleotide tested]
[2]; [4]
  inhibition of RNase H: ~100%
[2]
  IC50: 500 nM

## TTTTCTTTTGGGGGGTTTGGTTGGGTTTTCCCTTCCAGTCCCCCCTTTTCTTTT (chemistry not given here) [TFO A, 54-mer, partially self-complementary, hairpin-type stem-looped structure]
[3]; at concentrations less than one nanomolar, in vitro
  inhibition of cleavage (in words): completely inhibited cleavage
